The experiment relates to GL261 cells. Kind of experiment: Orthotopic GL261 allograft survival. The class given is in vivo, mouse. The following applies: C57BL/6, 25 mg/kg 3x weekly, compared to vehicle.

Take `CCN1CCN(Cc2ccc(Nc3ncc(F)c(-c4cc(F)c5nc(C)n(C(C)C)c5c4)n3)nc2)CC1` [Abemaciclib]: the “overall survival of glioma-bearing mice” value is given as “effective”.

The values above are taken from article PMC11974928 (bioRxiv, 2025).
